Several values for one entry are separate records, joined by “and”; a condition that tells them apart may be missing. Equal values may be shown once. Entries after “also recorded” stand apart in the source; their conditions may differ. Marks after values point to notes of the source that are not given here.
Tests used:
[1] = system: advanced NSCLC with PD-L1 ≥50% and clinically stable treated brain metastases; assay: EMPOWER-Lung 1 post-hoc patient reported outcomes (EORTC QLQ-C30/QLQ-LC13) in brain metastases subgroup; format: in vivo, human
Experimental: Patient Reported Outcomes (PROs): Post-hoc exploratory analyses were conducted to evaluate PROs in this subgroup of aNSCLC patients with PD-L1 ≥50% and clinically stable treated brain metastases at baseline. PROs were assessed at baseline and day 1 of each treatment cycle for the first 6 cycles, and then on day 1 of every third cycle using EORTC QLQ-C30 and QLQ-LC13 questionnaires. Higher scores indicate better functioning, global health status (GHS)/quality of life (QoL), or worse symptom severity. Mixed model for repeated measures analyses were performed to compare overall change from baseline scores between the two treatment arms, while controlling for baseline characteristics. The baseline PRO scores of the cemiplimab arm were broadly similar with the chemotherapy arm.

[2] = system: advanced NSCLC (aNSCLC) with PD-L1 ≥50%; assay: EMPOWER-Lung 1 phase 3 study, cemiplimab monotherapy vs platinum-doublet chemotherapy, OS and PFS; format: in vivo, human; conditions: cemiplimab monotherapy versus platinum-doublet chemotherapy
Source text: Additional objectives include further characterization of tumor responses, patient-reported outcomes, safety, and pharmacokinetics (PK). Objectives: […] Progression-free survival, the time to tumor progression (based on Response Evaluation Criteria in Solid Tumors version 1.1 [RECIST 1.1] criteria [Eisenhauer) 2009]) or death, was chosen as a primary endpoint because PFS is recognized as a marker of clinical benefit. […] Disease progression will be determined based on the RECIST 1.1 criteria (Eisenhauer 2009). […] A secondary objective of the study includes comparing the ORR of cemiplimab versus platinum-based chemotherapies. Primary Endpoints: The primary endpoints are OS and PFS (per RECIST 1.1, Eisenhauer 2009). Overall survival is defined as the time from randomization to the date of death. A patient who has not died is censored at the last known date of contact. Progression-free survival is defined as the time from randomization to the date of the first documented tumor progression or death due to any cause. Patients are censored according to the following rules: […] Study Design: […] […] Safety is assessed through the occurrence of TEAEs, vital sign evaluation, physical examination, and laboratory analyses. […] […]

[3] = system: advanced NSCLC with PD-L1 ≥50%; assay: EMPOWER-Lung 1 patient-reported symptoms, functioning and QoL (EORTC QLQ-C30/QLQ-LC13), ITT population; format: in vivo, human; conditions: for Definitive deterioration on key symptoms (dyspnea, cough, pain in chest, pain in other body parts, fatigue, nausea/vomiting, appetite loss, constipation, diarrhea): all P<0.05
Source text: Methods: EMPOWER-Lung 1 was a multicenter, open-label, randomized, controlled, Phase III, pivotal clinical trial of cemiplimab in adults (≥18 years) with: […] (ii) ECOG performance status ≤1; (iii) adequate organ and bone marrow function; and (iv) adequately treated clinically stable brain metastases (historically underrepresented in clinical trials) were allowed to enroll. […] In the intent-to-treat population, mixed-effects repeated measures models (mixed-model repeat measures, MMRM) were used to estimate least squares (LS) mean change from BL on all scales. Follow-up assessment was conducted 14 to 30 days after the last study treatment administration if a patient discontinued, or 14 to 30 days (±7 days) after the last cycle visit if the patient completed treatment. […] Scores range from 0 to 100; high scores on functional domains and low scores on symptoms reflect better outcomes. The QLQ-LC13 is a patient-reported outcome measure that assesses lung cancer disease- and treatment-specific symptoms during the past week. Scores range from 0 to 100; higher scores reflect higher symptom levels. […] MMRM analysis was used to estimate LS mean change from baseline on all scales among patients with a baseline and at least one post-baseline score. […] Hazard ratios (HRs) with 95% confidence intervals (95% CIs) were derived from the survival analyses to determine the likelihood of definitive deterioration. Analyses were based on the intention-to-treat (ITT) population consisting of all randomized patients.

[4] = system: advanced NSCLC with PD-L1 ≥50% and brain metastases; assay: EMPOWER-Lung 1 phase 3 subgroup analysis: clinical outcomes in patients with treated stable brain metastases; format: in vivo, human
Source text: Primary Endpoints: The primary endpoints are OS and PFS (per RECIST 1.1, Eisenhauer 2009). Overall survival is defined as the time from randomization to the date of death. A patient who has not died is censored at the last known date of contact. Progression-free survival is defined as the time from randomization to the date of the first documented tumor progression or death due to any cause. Patients are censored according to the following rules: […] Secondary Endpoints: A key secondary endpoint in the study is ORR. Objective response rate is defined as the number of patients with a best overall response (BOR) of confirmed CR or PR divided by the number of patients in the efficacy analysis set. Best overall response is defined as the best overall response (per RECIST 1.1) between the date of randomization and the date of the first objectively documented progression or the date of subsequent anti-cancer therapy, whichever comes first. Other secondary endpoints include DOR and QOL. Duration of response is defined as the time between the date of first response (CR or PR) to the date of the first documented tumor progression (per RECIST 1.1) or death due to any cause. Quality of life is measured by EORTC QLQ-C30 and […]. Further secondary endpoints also include the safety and tolerability of cemiplimab. To evaluate the safety and tolerability of cemiplimab versus platinum-based chemotherapies, safety and tolerability are measured by the incidence of AEs, serious adverse events (SAEs), deaths, and laboratory abnormalities to assess immunogenicity (ADA/Nabs) to cemiplimab and any relationship with drug concentrations, efficacy and safety. Methods: The design of this study is illustrated in FIG. 1. […] Tumor response to therapy was assessed according to RECIST 1.1, measured by CT or MRI. […] All patients received local therapy and needed to be neurologically stable before joining the trial. In patients with a known history of treated brain metastases at baseline, CT or MRI of the brain with contrast (unless contraindicated) was performed at screening (except if performed within 60 days prior to screening). Additional sites of known disease (including CNS) were also imaged at screening. During the treatment and follow-up period, surveillance imaging of the brain was performed every 18 weeks for year 1, and every 24 weeks for year 2, or sooner if clinically indicated.

[5] = system: advanced NSCLC; conditions: in vivo
[6] = system: locally advanced NSCLC (laNSCLC) with PD-L1 ≥50%; assay: EMPOWER-Lung 1 subgroup analysis: patients with locally advanced NSCLC; format: in vivo, human
Source text: Methods: […] Patients with locally advanced non-small cell lung cancer ([…]) were those with Stage IIIB/IIIC disease who were not candidates for definitive concurrent chemoradiotherapy. Study Design: Key eligibility criteria included: (i) treatment-naïve advanced NSCLC; […] (iii) no EGFR, ALK, or ROS1 mutations; […] Stratification factors included: histology (squamous vs non-squamous) and region (Europe, Asia, or ROW). Primary endpoints: OS and PFS. Secondary endpoints: ORR (key), DOR, HRQoL, and safety. The patients had locally advanced NSCLC, including those with Stage IIIB/IIIC disease who were not candidates for treatment with definitive concurrent chemoradiotherapy or had recurred after initial treatment with concurrent chemoradiotherapy.

[7] = Cemiplimab minus chemo, QLQ-C30, ITT
[8] = cemiplimab vs chemotherapy, ITT
[9] = after baseline, brain metastases subgroup, n=34 per arm
[10] = brain metastases subgroup, n=34 per arm
[11] = brain metastases subgroup, cemiplimab vs chemotherapy
[12] = cemiplimab n=45, chemotherapy n=42
[13] = cemiplimab n=45, chemotherapy n=42, listed as cemiplimab

Substance: cemiplimab
- Difference in overall change from baseline in appetite loss ([1]; cemiplimab versus chemotherapy): −7.43
- Difference in overall change from baseline in emotional functioning ([1]; cemiplimab versus chemotherapy): 7.27
- Difference in overall change from baseline in role functioning ([1]; cemiplimab versus chemotherapy): 8.59
- Difference in overall change from baseline in symptoms of fatigue ([1]; cemiplimab versus chemotherapy): −8.19
- Overall change from baseline in GHS/QOL, difference cemiplimab versus chemotherapy ([1]; mixed model for repeated measures): 9.35
- Overall survival hazard ratio [2]: 0.57
- Progression-free survival hazard ratio [2]: 0.54
- Difference in LS mean change from BL (95% CI): Cognitive functioning [3, 7]: 2.5 (0.4-4.5)*
- Difference in LS mean change from BL (95% CI): Emotional functioning [3, 7]: 3.4 (1.0-5.9)*
- Difference in LS mean change from BL (95% CI): GHS/QoL [3, 7]: 5.4 (2.7-8.1)*
- Difference in LS mean change from BL (95% CI): Physical functioning [3, 7]: 4.2 (1.6-6.7)*
- Difference in LS mean change from BL (95% CI): Role functioning [3, 7]: 3.3 (0.2-6.3)*
- Difference in LS mean change from BL (95% CI): Social functioning [3, 7]: 5.2 (2.5-7.9)*
- LS mean change (SE) from baseline in GHS/QOL across all timepoints ([3]; MMRM analysis, EORTC QLQ-C30, C2 to C15): 7.1 (1.0)
- Definitive deterioration on key symptoms (dyspnea, cough, pain in chest, pain in other body parts, fatigue, nausea/vomiting, appetite loss, constipation, diarrhea) ([3]; cemiplimab versus chemotherapy): lower likelihood of definitive deterioration
- Definitive deterioration on key symptoms (dyspnea, cough, pain in chest, pain in other body parts, fatigue, nausea/vomiting, appetite loss, constipation, diarrhea) ([3]; cemiplimab versus chemotherapy, listed as cemiplimab): significantly lower risk of definitive deterioration
- Definitive deterioration of treatment-related symptoms of peripheral neuropathy and alopecia ([3]; cemiplimab versus chemotherapy, both P<0.05): lower likelihood of definitive deterioration; also recorded: lower risk of definitive deterioration
- HR (95% CI) for definitive deterioration: Cognitive functioning [3, 8]: 0.64 (0.44-0.93)*
- HR (95% CI) for definitive deterioration: Emotional functioning [3, 8]: 0.49 (0.30-0.79)*
- HR (95% CI) for definitive deterioration: GHS/QoL [3, 8]: 0.73 (0.52-1.03)
- HR (95% CI) for definitive deterioration: Physical functioning [3, 8]: 0.59 (0.42-0.84)*
- HR (95% CI) for definitive deterioration: Role functioning [3, 8]: 0.65 (0.46-0.92)*
- HR (95% CI) for definitive deterioration: Social functioning [3, 8]: 0.50 (0.35-0.72)*
- CNS intracranial disease progression, % of patients [4, 9]: 5.9%
- CNS intracranial disease progression, patients [4, 9]: two
- Best overall tumor response: Complete response, % [4, 10]: (8.8) %
- Best overall tumor response: Non-evaluable, % [4, 10]: (11.8) %
- Best overall tumor response: Partial response, % [4, 10]: (32.4) %
- Best overall tumor response: Progressive disease, % [4, 10]: (20.6) %
- Best overall tumor response: Stable disease, % [4, 10]: (26.5) %
- Extra-CNS disease progression, % of patients [4, 10]: 26.5%
- Extra-CNS disease progression, patients [4, 10]: 9 patients
- Intracranial disease progression due to a new tumor, % of patients [4, 10]: 2.9%
- Intracranial disease progression due to a new tumor, patients [4, 10]: one
- Intracranial disease progression due to an existing tumor, % of patients [4, 10]: 5.9%
- Intracranial disease progression due to an existing tumor, patients [4, 10]: two
- ORR [4, 10]: 41.2%
- OS, median ([4]; brain metastases subgroup, n=34 per arm, cemiplimab 350 mg IV Q3W or investigator's choice chemotherapy): 18.7 months
- ORR ([4]; brain metastases subgroup, n=34 per arm, listed as cemiplimab): 41.2%
- PFS, median ([4]; brain metastases subgroup, n=34 per arm, per independent review committee): 10.4 months
- ORR odds ratio (95% CI) [4, 11]: 6.9 (1.7-27.8); P = 0.0034*
- OS HR (95% CI) [4, 11]: 0.17 (0.04-0.76); P = 0.0091
- PFS HR (95% CI) [4, 11]: 0.45 (0.22-0.92); P = 0.0231
- Median KM estimation of brain metastasis PFS ([4]; cemiplimab versus chemotherapy, FIG. 4): superior
- Patients with ≥1 PRBC transfusions, % [5]: 1.1%
- Patients with ≥1 platelet transfusions, % [5]: 0.3%
- SAE-associated hospitalization rate [5]: 33.2 per 100 patient-years
- 12-month OS ([6]; FIG. 9): 78.5%
- 12-month PFS ([6]; FIG. 10): 38.5%
- Best overall response: CR, % [6, 12]: (2.2) %
- Best overall response: Non-evaluable, % [6, 12]: (17.8) %
- Best overall response: PD, % [6, 12]: (15.6) %
- Best overall response: Partial response, % [6, 12]: (42.2) %
- Best overall response: Stable disease, % [6, 12]: (22.2) %
- ORR, % [6, 12]: (44.4) %
- PFS, median [6, 12]: 8.4 months
- ORR, % [6, 13]: 44% and 44.4%
- OS, median [6, 13]: not yet reached
- ORR odds ratio (95% CI) ([6]; cemiplimab vs chemotherapy): 1.8 (0.7-4.2); *P = 0.20
- OS HR (95% CI) ([6]; cemiplimab vs chemotherapy): 0.5 (0.2-1.1); P = 0.0875
- PFS HR (95% CI) ([6]; cemiplimab vs chemotherapy): 0.5 (0.3-0.9); P = 0.0153
- Reduction in the risk of disease progression ([6]; cemiplimab vs chemotherapy): 51%
- PFS HR (95% CI) ([6]; cemiplimab vs chemotherapy, listed as cemiplimab): 0.49
- KM estimated DOR, median ([6]; responders: cemiplimab n=20, chemotherapy n=13): 12.5 months
